Patent publication US12686690B2, “Macrocyclic urea orexin receptor agonists” (Merck Sharp & Dohme LLC, priority 2020, dated 2026)

Biological target: T1, hOX2R (Homo sapiens, UniProt O43614)
T1 construct: expressed in transfected cells; host or cells: CHO cells (G418 selection)
T1 sequence (O43614 1-444): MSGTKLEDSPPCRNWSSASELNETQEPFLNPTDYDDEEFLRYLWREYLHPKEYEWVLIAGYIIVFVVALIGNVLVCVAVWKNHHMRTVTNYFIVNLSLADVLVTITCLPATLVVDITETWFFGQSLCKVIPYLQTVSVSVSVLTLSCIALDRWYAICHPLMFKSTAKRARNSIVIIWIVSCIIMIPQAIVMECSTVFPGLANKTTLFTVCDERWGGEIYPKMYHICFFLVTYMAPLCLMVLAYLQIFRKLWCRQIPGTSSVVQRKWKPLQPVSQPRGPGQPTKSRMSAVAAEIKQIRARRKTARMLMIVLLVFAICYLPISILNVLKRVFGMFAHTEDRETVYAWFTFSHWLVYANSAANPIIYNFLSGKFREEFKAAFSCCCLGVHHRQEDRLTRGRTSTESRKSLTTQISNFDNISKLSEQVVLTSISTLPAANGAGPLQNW
Test: hOX2R IPone assay (orexin receptor agonism)
Format: cell-based
Settings: IPone readout; for hOX2R_Ipone max %act: maximal activation; for EC50: orexin receptor agonist, read-out: hOX2R_IPone EC50

Structure (SMILES) | hOX2R_Ipone max %act [%] | EC50 [nM]
CCN1C(=O)NC(c2ncnn2C)CCCCCOc2nc(cn3ccnc23)-c2cc(ncc2OC)[C@H]1C (stereo partly drawn) [Example 219, (3R,E)-4-ethyl-2^5-methoxy-3-methyl-7-(1-methyl-1H-1,2,4-triazol-5-yl)-13-oxa-4,6-diaza-1(6,8)-imidazo[1,2-a]pyrazina-2(4,2)-pyridinacyclotridecaphan-5-one] | 102.6 | 37.5
CCN1C(=O)NC(CC2CC(F)(F)C2)CCCCCOc2nc(cn3ccnc23)-c2cc(ncc2OC)[C@H]1C (single isomer, unassigned) [Example 69A] | 99.7 | 6.6
CCN1C(=O)N[C@H](C(F)(F)F)CCCCCOc2nc(cn3ccnc23)-c2cc(ncc2OC)[C@H]1C [Example 115, (12R,16S)-13-ethyl-8-methoxy-12-methyl-16-(trifluoromethyl)-12,13,16,17,18,19,20,21-octahydro-6,23-(azeno)-11,7-(metheno)imidazo[2,1-c][1,4,10,13,15]oxatetraazacyclohenicosin-14(15H)-one] | 97.2 | 868
CCN1C(=O)N[C@@H](CCC(F)(F)F)CCCCCOc2nc(cn3ccnc23)C2=NC=C(O2)C1C (single isomer, unassigned) [Example 104A] | 60.9 | 4910
CCN1C(=O)NC(C)CCCCCOc2nc(cn3ccnc23)-c2cc(ncc2OC)[C@H]1C (single isomer, unassigned) [Example 9B] | 100.9 | 6
CCN1C(=O)NCCNCCCOc2cn3ccnc3c(n2)-c2cccc(c2)[C@H]1C [Example 10, (R,E)-4-ethyl-3-methyl-13-oxa-4,6,9-triaza-1(6,8)-imidazo[1,2-a]pyrazina-2(1,3)-benzenacyclotridecaphan-5-one] | 97.61 | 950
CCN1C(=O)N[C@@H](CCC(F)(F)F)CCCCCOc2cc(nn3ccnc23)-c2cc(cnc2OC)[C@H]1C [Example 89, (12R,16R)-13-ethyl-8-methoxy-12-methyl-16-(3,3,3-trifluoropropyl)-12,13,16,17,18,19,20, 21-octahydro-6,23:11,7-di(metheno) imidazo[2,1-c][1,4,5,9,13,15]oxapentaaza-cyclohenicosin-14(15H)-one] | 99.2 | 6.4
CCN1C(=O)N[C@@H](CCC(F)(F)F)CCOCCOc2nc(cn3ncnc23)-c2c(OC)cnc(c2F)C1C (stereo partly drawn) [Example 179, (7S,E)-4-ethyl-23-fluoro-25-methoxy-3-methyl-7-(3,3,3-trifluoropropyl)-10,13-dioxa-4,6-diaza-1(6,8)-[1,2, 4]triazolo[1,5-a]pyrazina-2(4,2)-pyridinacyclotridecaphan-5-one] | 100.8 | 8.24
CCN1C(=O)N[C@@H](CCC(F)(F)F)CCCCCOc2nc(cn3ccnc23)-c2cc(C)nc(c2)[C@@H]1C [Example 107A, (12S,16R)-13-ethyl-9,12-dimethyl-16-(3,3,3-trifluoropropyl)-12,13,16,17,18,19,20, 21-octahydro-6,23-(azeno)-11,7-(metheno)imidazo[2,1-c][1,4,10,13,15] oxatetraazacycloheni-cosin-14(15H)-one] | 92.7 | 166
CCN1C(=O)N[C@@H](CCC(F)(F)F)CCCCCOc2nc(cn3ccnc23)-c2cc(ncn2)C1C (stereo partly drawn) [Example 112B, (16R)-13-ethyl-12-methyl-16-(3,3,3-trifluoropropyl)-12,13,16,17,18,19,20,21-octahydro-6,23-(azeno)-11,7-(metheno)imidazo[2,1-c][1,4,8,10,13,15]oxapentaazacyclohenicosin-14(15H)-one] | 101.8 | 9.3
CCN1C(=O)NCC(C(F)(F)F)N(C)CCCOc2nc(cn3ccnc23)-c2cccc(c2)C1C [Example 26B, (3R,E)-4-ethyl-3,9-dimethyl-8-(trifluoromethyl)-13-oxa-4,6,9-triaza-1(6,8)-imidazo[1,2-a]pyrazina-2(1,3)-benzenacyclotridecaphan-5-one] | 98.8 | 12
CCN1C(=O)N[C@@H](CCC(F)(F)F)CCCCCOc2nc(cn3ccnc23)C2=NC=C(S2)C1C (single isomer, unassigned) [Example 94A] | 97.9 | 167

Stronger by EC50, values ahead:

hOX2R_Ipone max %act [%] | EC50 [nM] | Structure (SMILES)
99.9 | 4.6 | CCN1C(=O)N[C@@H](CCC(F)(F)F)CCCCCOc2nc(cn3ccnc23)-c2cc(nc(C)n2)[C@H]1C [Example 119B, (12R,16R)-13-ethyl-9,12-dimethyl-16-(3,3,3-trifluoropropyl)-12,13,16,17,18,19,20,21-octahydro-6,23-(azeno)-11,7-(metheno)imidazo[2,1-c][1,4,8,10,13,15]oxapentaazacyclohenicosin-14(15H)-one]
100.6 | 4.25 | CCN1C(=O)NC(COC)CCCCCOc2nc(cn3ccnc23)-c2cc(ncc2F)[C@H]1C (stereo partly drawn) [Example 199, (3R,E)-4-ethyl-25-fluoro-7-(methoxymethyl)-3-methyl-13-oxa-4,6-diaza-1(6,8)-imidazo[1,2-a]pyrazina-2(4,2)-pyridinacyclotridecaphan-5-one]
101.6 | 4.1 | CCN1C(=O)NC(CC2CC2(F)F)CCCCCOc2nc(cn3ccnc23)-c2cc(ncc2OC)[C@H]1C (single isomer, unassigned) [Example 59A]
104.9 | 3.56 | CCN1C(=O)NC(c2csc(C)n2)CCCCCOc2nc(cn3ccnc23)-c2cc(cnc2OC)C1C [Example 215, (3R,E)-4-ethyl-22-methoxy-3-methyl-7-(2-methylthiazol-4-yl)-13-oxa-4,6-diaza-1(6,8)-imidazo[1,2-a]pyrazina-2(3,5)-pyridinacyclotridecaphan-5-one]
102.9 | 3.43 | CCN1C(=O)NC2CN(CCCCOc3nc(cn4ccnc34)-c3cc(ncc3OC)[C@H]1C)CC2C(F)(F)F (single isomer, unassigned) [Example 214]
99.72 | 2.68 | CCN1C(=O)N[C@@H](CCC(F)(F)F)CCCCCOc2cc(cc3cccnc23)-c2cc(ncc2OC)[C@H]1C [Example 157, (3R,7R)-4-ethyl-25-methoxy-3-methyl-7-(3,3,3-trifluoropropyl)-13-oxa-4,6-diaza-1(6,8)-quinolina-2(4,2)-pyridinacyclotridecaphan-5-one]
99.31 | 2.33 | CCN1C(=O)N[C@@H](CCC(F)(F)F)CCCCCOc2cc(nn3c(C)cnc23)-c2cc(ncc2OC)[C@H]1C [Example 168, (3R,7R,E)-4-ethyl-25-methoxy-13,3-dimethyl-7-(3,3,3-trifluoropropyl)-13-oxa-4,6-diaza-1(6,8)-imidazo[1,2-b]pyridazina-2(4,2)-pyridinacyclotridecaphan-5-one]
100.9 | 2.2 | CCN1C(=O)NC(CCCOC)CCCCCOc2nc(cn3ccnc23)-c2cc(ncc2OC)[C@H]1C (single isomer, unassigned) [Example 60B]
100.5 | 2.11 | CCN1C(=O)NC(CCC(F)F)CCCCCOc2cc(nn3ccnc23)-c2cc(ncc2F)[C@H]1C (stereo partly drawn) [Example 204, (3R,E)-7-(3,3-difluoropropyl)-4-ethyl-25-fluoro-3-methyl-13-oxa-4,6-diaza-1(6,8)-imidazo[1,2-b]pyridazina-2(4,2)-pyridina-cyclotridecaphan-5-one]
107.9 | 1.45 | CCN1C(=O)N[C@@H](CCC(C)(F)F)CCOCCOc2nc(cc3c(C)cnn23)-c2cc(ncc2OC)[C@H]1C [Example 171, (3R,7S,E)-7-(3,3-difluorobutyl)-4-ethyl-25-methoxy-3-methyl-9,13-dioxa-4,6-diaza-1(5,7)-pyrazolo[1,5-c]pyrimidina-2(4,2)-pyridinacyclotridecaphan-5-one]
100.9 | 1.4 | CCOCC1CCCCCOc2nc(cn3ccnc23)-c2cc(ncc2OC)[C@@H](C)N(CC)C(=O)N1 (single isomer, unassigned) [Example 62B]
100.9 | 1.3 | CCN1C(=O)NC(CC2CCC2)CCCCCOc2nc(cn3ccnc23)-c2cc(ncc2OC)[C@H]1C (single isomer, unassigned) [Example 61B]
102.3 | 1.02 | CCN1C(=O)NC(CC(F)F)CCCCCOc2nc(cn3ccnc23)-c2cc(ncc2OC)[C@H]1C (stereo partly drawn) [Example 186, (3R,E)-7-(2,2-difluoroethyl)-4-ethyl-25-methoxy-3-methyl-13-oxa-4,6-diaza-1(6,8)-imidazo[1,2-a]pyrazina-2(4,2)-pyridinacyclotridecaphan-5-one]
101 | 1 | CCN1C(=O)NC(CCOC)CCCCCOc2nc(cn3ccnc23)-c2cc(ncc2OC)[C@H]1C (single isomer, unassigned) [Example 56B]
100.9 | 0.7 | CCN1C(=O)N[C@@H](CC(F)(F)F)CCCCCOc2nc(cn3ccnc23)-c2cc(ncc2OC)[C@H]1C [Example 114, (12R,16R)-13-ethyl-8-methoxy-12-methyl-16-(2,2,2-trifluoroethyl)-12,13,16,17,18,19,20,21-octahydro-6,23-(azeno)-11,7-(metheno)imidazo[2,1-c][1,4,10,13,15]oxatetraazacyclohenicosin-14(15H)-one]
101.5 | 0.6 | CCN1C(=O)NC(CCC(F)(F)F)CCOCCOc2nc(cn3ccnc23)-c2cc(ncc2OC)[C@H]1C (single isomer, unassigned) [Example 6B]
